The target in this experiment is EGFR (epidermal growth factor receptor) (Homo sapiens, UniProt P00533). As to the kind of experiment: labelling in transfected HeLa cells, immunoprecipitation, in-gel fluorescence. The format is cell-based. To be noted: covalent, at Cys797 sulfenic acid; 50 uM probe, 500 uM H2O2, 1 h, 37 °C.
Sequence of EGFR (epidermal growth factor receptor) (P00533 25-1210): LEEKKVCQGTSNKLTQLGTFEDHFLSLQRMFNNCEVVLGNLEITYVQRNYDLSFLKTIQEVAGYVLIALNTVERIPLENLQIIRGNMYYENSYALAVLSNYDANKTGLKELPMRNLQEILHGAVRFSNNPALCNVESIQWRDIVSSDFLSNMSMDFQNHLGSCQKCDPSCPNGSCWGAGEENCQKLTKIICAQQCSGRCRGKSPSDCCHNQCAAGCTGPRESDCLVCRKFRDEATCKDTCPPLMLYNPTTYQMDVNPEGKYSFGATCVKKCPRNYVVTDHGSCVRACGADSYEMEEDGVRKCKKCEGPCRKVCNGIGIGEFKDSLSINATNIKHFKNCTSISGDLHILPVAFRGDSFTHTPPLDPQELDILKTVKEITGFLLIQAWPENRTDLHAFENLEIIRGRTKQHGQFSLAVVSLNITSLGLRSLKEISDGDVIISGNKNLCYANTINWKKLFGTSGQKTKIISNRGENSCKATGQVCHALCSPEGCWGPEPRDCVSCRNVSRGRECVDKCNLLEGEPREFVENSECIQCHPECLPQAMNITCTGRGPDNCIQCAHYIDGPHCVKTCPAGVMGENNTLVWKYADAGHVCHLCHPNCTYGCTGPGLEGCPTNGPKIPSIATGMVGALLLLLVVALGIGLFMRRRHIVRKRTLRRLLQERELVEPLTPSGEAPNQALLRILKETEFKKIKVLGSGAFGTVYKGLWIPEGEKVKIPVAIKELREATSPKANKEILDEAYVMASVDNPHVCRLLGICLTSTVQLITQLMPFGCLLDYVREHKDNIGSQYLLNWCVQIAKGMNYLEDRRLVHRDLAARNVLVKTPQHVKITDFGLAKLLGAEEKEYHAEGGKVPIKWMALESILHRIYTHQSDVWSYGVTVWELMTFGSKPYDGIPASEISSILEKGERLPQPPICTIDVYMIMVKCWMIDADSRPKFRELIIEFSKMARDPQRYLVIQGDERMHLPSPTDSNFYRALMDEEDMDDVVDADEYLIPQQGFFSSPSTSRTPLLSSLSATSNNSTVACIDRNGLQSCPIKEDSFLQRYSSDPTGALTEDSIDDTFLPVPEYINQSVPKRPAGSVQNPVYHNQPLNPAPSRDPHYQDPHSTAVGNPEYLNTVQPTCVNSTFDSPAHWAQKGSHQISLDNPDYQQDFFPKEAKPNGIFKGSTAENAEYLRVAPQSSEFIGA

In the case of `O=C1CS(=O)(=O)c2cc(F)c(N3CCC3)c3cccc1c23` [compound 8, CysOx2], the “labelling in transfected HeLa cells, immunoprecipitation, in-gel fluorescence” value is recorded as “Wild-type EGFR exhibited detectable fluorescence signal from CysOx1 or CysOx2”.
Under `Nc1c(F)cc2c3c(cccc13)C(=O)CS2(=O)=O` [compound 7, CysOx1] stands “Wild-type EGFR exhibited detectable fluorescence signal from CysOx1 or CysOx2”.

Values taken from publication PMC9492777, “Reaction-based fluorogenic probes for detecting protein cysteine oxidation in living cells” (Nature Communications, 2022).
